Laboratory results reported in patent US20230263825A1, “ANTI-CANCER ACTIVITY OF PERBORATE SALTS” (priority 2020, published 2023).

Assay: Toxicology in rats, oral, histopathology
Type: in vivo
Conditions: rat, in vivo, po
Description: After 32 days, the rats were sacrificed and their organs were examined under a microscope.

O.O.O.O.[Na+].[O-]B1OO1 [sodium perborate tetrahydrate]
HEART Notable or abnormal, % (0.125 mg/kg): 0% | HEART Notable or abnormal, No Exam (0.125 mg/kg): 0/10 | HEART Within normal limits, % (0.125 mg/kg): 100% | HEART Within normal limits, No Exam (0.125 mg/kg): 10/10 | INTESTINE, Large Notable or abnormal, % (0.125 mg/kg): 0% | INTESTINE, Large Notable or abnormal, No Exam (0.125 mg/kg): 0/10 | INTESTINE, Large Within normal limits, % (0.125 mg/kg): 100% | INTESTINE, Large Within normal limits, No Exam (0.125 mg/kg): 10/10 | INTESTINE, Small Notable or abnormal, % (0.125 mg/kg): 0% | INTESTINE, Small Notable or abnormal, No Exam (0.125 mg/kg): 0/10 | INTESTINE, Small Within normal limits, % (0.125 mg/kg): 100% | INTESTINE, Small Within normal limits, No Exam (0.125 mg/kg): 10/10 | KIDNEY Edema, % (0.125 mg/kg): 0% | KIDNEY Edema, No Exam (0.125 mg/kg): 0/10 | KIDNEY Notable or abnormal, % (0.125 mg/kg): 0% | KIDNEY Notable or abnormal, No Exam (0.125 mg/kg): 0/10 | KIDNEY Within normal limits, % (0.125 mg/kg): 100% | KIDNEY Within normal limits, No Exam (0.125 mg/kg): 10/10 | LIVER Fattening, % (0.125 mg/kg): 0% | LIVER Fattening, No Exam (0.125 mg/kg): 0/10 | LIVER Infiltration, % (0.125 mg/kg): 0% | LIVER Infiltration, No Exam (0.125 mg/kg): 0/10 | LIVER Notable or abnormal, % (0.125 mg/kg): 0% | LIVER Notable or abnormal, No Exam (0.125 mg/kg): 0/10 | LIVER Within normal limits, % (0.125 mg/kg): 100% | LIVER Within normal limits, No Exam (0.125 mg/kg): 10/10 | LUNG Lymphocytic infiltration, % (0.125 mg/kg): 0% | LUNG Lymphocytic infiltration, No Exam (0.125 mg/kg): 0/10 | LUNG Notable or abnormal, % (0.125 mg/kg): 0% | LUNG Notable or abnormal, No Exam (0.125 mg/kg): 0/10 | LUNG Pulmonary edema, % (0.125 mg/kg): 0% | LUNG Pulmonary edema, No Exam (0.125 mg/kg): 0/10 | LUNG Within normal limits, % (0.125 mg/kg): 100% | LUNG Within normal limits, No Exam (0.125 mg/kg): 10/10 | PANCREAS Notable or abnormal, % (0.125 mg/kg): 0% | PANCREAS Notable or abnormal, No Exam (0.125 mg/kg): 0/10 | PANCREAS Within normal limits, % (0.125 mg/kg): 100% | PANCREAS Within normal limits, No Exam (0.125 mg/kg): 10/10 | SPLEEN Notable or abnormal, % (0.125 mg/kg): 0% | SPLEEN Notable or abnormal, No Exam (0.125 mg/kg): 0/10 | SPLEEN Within normal limits, % (0.125 mg/kg): 100% | SPLEEN Within normal limits, No Exam (0.125 mg/kg): 10/10 | STOMACH Notable or abnormal, % (0.125 mg/kg): 0% | STOMACH Notable or abnormal, No Exam (0.125 mg/kg): 0/10 | STOMACH Within normal limits, % (0.125 mg/kg): 100% | STOMACH Within normal limits, No Exam (0.125 mg/kg): 10/10 | HEART Notable or abnormal, % (0.25 mg/kg): 0% | HEART Notable or abnormal, No Exam (0.25 mg/kg): 0/10 | HEART Within normal limits, % (0.25 mg/kg): 100% | HEART Within normal limits, No Exam (0.25 mg/kg): 10/10 | INTESTINE, Large Notable or abnormal, % (0.25 mg/kg): 0% | INTESTINE, Large Notable or abnormal, No Exam (0.25 mg/kg): 0/10 | INTESTINE, Large Within normal limits, % (0.25 mg/kg): 100% | INTESTINE, Large Within normal limits, No Exam (0.25 mg/kg): 10/10 | INTESTINE, Small Notable or abnormal, % (0.25 mg/kg): 0% | INTESTINE, Small Notable or abnormal, No Exam (0.25 mg/kg): 0/10 | INTESTINE, Small Within normal limits, % (0.25 mg/kg): 100% | INTESTINE, Small Within normal limits, No Exam (0.25 mg/kg): 10/10 | KIDNEY Edema, % (0.25 mg/kg): 0% | KIDNEY Edema, No Exam (0.25 mg/kg): 0/10 | KIDNEY Notable or abnormal, % (0.25 mg/kg): 0% | KIDNEY Notable or abnormal, No Exam (0.25 mg/kg): 0/10 | KIDNEY Within normal limits, % (0.25 mg/kg): 100% | KIDNEY Within normal limits, No Exam (0.25 mg/kg): 10/10 | LIVER Fattening, % (0.25 mg/kg): 0% | LIVER Fattening, No Exam (0.25 mg/kg): 0/10 | LIVER Infiltration, % (0.25 mg/kg): 0% | LIVER Infiltration, No Exam (0.25 mg/kg): 0/10 | LIVER Notable or abnormal, % (0.25 mg/kg): 0% | LIVER Notable or abnormal, No Exam (0.25 mg/kg): 0/10 | LIVER Within normal limits, % (0.25 mg/kg): 100% | LIVER Within normal limits, No Exam (0.25 mg/kg): 10/10 | LUNG Lymphocytic infiltration, % (0.25 mg/kg): 0% | LUNG Lymphocytic infiltration, No Exam (0.25 mg/kg): 0/10 | LUNG Notable or abnormal, % (0.25 mg/kg): 0% | LUNG Notable or abnormal, No Exam (0.25 mg/kg): 0/10 | LUNG Pulmonary edema, % (0.25 mg/kg): 0% | LUNG Pulmonary edema, No Exam (0.25 mg/kg): 0/10 | LUNG Within normal limits, % (0.25 mg/kg): 100% | LUNG Within normal limits, No Exam (0.25 mg/kg): 10/10 | PANCREAS Notable or abnormal, % (0.25 mg/kg): 0% | PANCREAS Notable or abnormal, No Exam (0.25 mg/kg): 0/10 | PANCREAS Within normal limits, % (0.25 mg/kg): 100% | PANCREAS Within normal limits, No Exam (0.25 mg/kg): 10/10 | SPLEEN Notable or abnormal, % (0.25 mg/kg): 0% | SPLEEN Notable or abnormal, No Exam (0.25 mg/kg): 0/10 | SPLEEN Within normal limits, % (0.25 mg/kg): 100% | SPLEEN Within normal limits, No Exam (0.25 mg/kg): 10/10 | STOMACH Notable or abnormal, % (0.25 mg/kg): 0% | STOMACH Notable or abnormal, No Exam (0.25 mg/kg): 0/10 | STOMACH Within normal limits, % (0.25 mg/kg): 100% | STOMACH Within normal limits, No Exam (0.25 mg/kg): 10/10 | HEART Notable or abnormal, % (0.5 mg/kg): 0% | HEART Notable or abnormal, No Exam (0.5 mg/kg): 0/10 | HEART Within normal limits, % (0.5 mg/kg): 100% | HEART Within normal limits, No Exam (0.5 mg/kg): 10/10 | INTESTINE, Large Notable or abnormal, % (0.5 mg/kg): 0% | INTESTINE, Large Notable or abnormal, No Exam (0.5 mg/kg): 0/10 | INTESTINE, Large Within normal limits, % (0.5 mg/kg): 100% | INTESTINE, Large Within normal limits, No Exam (0.5 mg/kg): 10/10 | INTESTINE, Small Notable or abnormal, % (0.5 mg/kg): 0% | INTESTINE, Small Notable or abnormal, No Exam (0.5 mg/kg): 0/10 | INTESTINE, Small Within normal limits, % (0.5 mg/kg): 100% | INTESTINE, Small Within normal limits, No Exam (0.5 mg/kg): 10/10 | KIDNEY Edema, % (0.5 mg/kg): 0% | KIDNEY Edema, No Exam (0.5 mg/kg): 0/10 | KIDNEY Notable or abnormal, % (0.5 mg/kg): 0% | KIDNEY Notable or abnormal, No Exam (0.5 mg/kg): 0/10 | KIDNEY Within normal limits, % (0.5 mg/kg): 100% | KIDNEY Within normal limits, No Exam (0.5 mg/kg): 10/10 | LIVER Fattening, % (0.5 mg/kg): 0% | LIVER Fattening, No Exam (0.5 mg/kg): 0/10 | LIVER Infiltration, % (0.5 mg/kg): 0% | LIVER Infiltration, No Exam (0.5 mg/kg): 0/10 | LIVER Notable or abnormal, % (0.5 mg/kg): 0% | LIVER Notable or abnormal, No Exam (0.5 mg/kg): 0/10 | LIVER Within normal limits, % (0.5 mg/kg): 100% | LIVER Within normal limits, No Exam (0.5 mg/kg): 10/10 | LUNG Lymphocytic infiltration, % (0.5 mg/kg): 0% | LUNG Lymphocytic infiltration, No Exam (0.5 mg/kg): 0/10 | LUNG Notable or abnormal, % (0.5 mg/kg): 0% | LUNG Notable or abnormal, No Exam (0.5 mg/kg): 0/10 | LUNG Pulmonary edema, % (0.5 mg/kg): 0% | LUNG Pulmonary edema, No Exam (0.5 mg/kg): 0/10 | LUNG Within normal limits, % (0.5 mg/kg): 100% | LUNG Within normal limits, No Exam (0.5 mg/kg): 10/10 | PANCREAS Notable or abnormal, % (0.5 mg/kg): 0% | PANCREAS Notable or abnormal, No Exam (0.5 mg/kg): 0/10 | PANCREAS Within normal limits, % (0.5 mg/kg): 100% | PANCREAS Within normal limits, No Exam (0.5 mg/kg): 10/10 | SPLEEN Notable or abnormal, % (0.5 mg/kg): 0% | SPLEEN Notable or abnormal, No Exam (0.5 mg/kg): 0/10 | SPLEEN Within normal limits, % (0.5 mg/kg): 100% | SPLEEN Within normal limits, No Exam (0.5 mg/kg): 10/10 | STOMACH Notable or abnormal, % (0.5 mg/kg): 0% | STOMACH Notable or abnormal, No Exam (0.5 mg/kg): 0/10 | STOMACH Within normal limits, % (0.5 mg/kg): 100% | STOMACH Within normal limits, No Exam (0.5 mg/kg): 10/10 | HEART Notable or abnormal, % (1 mg/kg): 0% | HEART Notable or abnormal, No Exam (1 mg/kg): 0/10 | HEART Within normal limits, % (1 mg/kg): 100% | HEART Within normal limits, No Exam (1 mg/kg): 10/10 | INTESTINE, Large Notable or abnormal, % (1 mg/kg): 0% | INTESTINE, Large Notable or abnormal, No Exam (1 mg/kg): 0/10 | INTESTINE, Large Within normal limits, % (1 mg/kg): 100% | INTESTINE, Large Within normal limits, No Exam (1 mg/kg): 10/10 | INTESTINE, Small Notable or abnormal, % (1 mg/kg): 0% | INTESTINE, Small Notable or abnormal, No Exam (1 mg/kg): 0/10 | INTESTINE, Small Within normal limits, % (1 mg/kg): 100% | INTESTINE, Small Within normal limits, No Exam (1 mg/kg): 10/10 | KIDNEY Edema, % (1 mg/kg): 0% | KIDNEY Edema, No Exam (1 mg/kg): 0/10 | KIDNEY Notable or abnormal, % (1 mg/kg): 0% | KIDNEY Notable or abnormal, No Exam (1 mg/kg): 0/10 | KIDNEY Within normal limits, % (1 mg/kg): 100% | KIDNEY Within normal limits, No Exam (1 mg/kg): 10/10 | LIVER Fattening, % (1 mg/kg): 0% | LIVER Fattening, No Exam (1 mg/kg): 0/10 | LIVER Infiltration, % (1 mg/kg): 0% | LIVER Infiltration, No Exam (1 mg/kg): 0/10 | LIVER Notable or abnormal, % (1 mg/kg): 0% | LIVER Notable or abnormal, No Exam (1 mg/kg): 0/10
